From patent US12599582B2, “Pyrrole compounds” (ALIGOS THERAPEUTICS, INC., priority 2019, dated 2026) come the findings set out here.

The experiment concerns HBV. Description: HBV-DNA Antiviral Assay Using HepG2.2.15 Cells (extracellular HBV DNA by qPCR). The format is cell-based, hepatitis B virus (HBV). The note with it: Hepatitis B virus; HBV DNA inhibition, HepG2.2.15 cells, extracellular HBV DNA by qPCR; read-out: EC50. Here is the method:
The following assay procedure describes the HBV antiviral assay. This assay uses HepG2.2.15 cells, which have been transfected with HBV genome, and extracellular HBV DNA quantification as endpoint. Cell viability is assessed in parallel by measuring the intracellular ATP content using the CellTiter-Glo® reagent from Promega.
On day 0, HepG2.2.15 cells were seeded in 96-well plates at a density of 6.0×10^4 cells/well (0.1 mL/well). The cells were incubated at 37° C. and 5% CO2.
On day 1, the test articles were diluted and added to cell culture wells (8 concentrations, 4-fold dilution, in duplicate). GLS4, Tenofovir and Sorafenib were used as reference compounds. 100 μL of culture medium containing the compounds was added to the plate, and the final total volume per well was 200 μL. The final concentration of DMSO in the culture medium was 0.5%. The plate map of compound treatment is shown below. The cells were cultured at 37° C. and 5% CO2 for 3 days.
On day 4, the plates were refreshed with culture media with compounds.
On day 7, cell viability was assessed using the CellTiter-Glo®, and the cell culture supernatants were collected for determination of HBV DNA by qPCR.
Extracellular DNA was isolated with QIAamp 96 DNA Blood Kit per the manufacturer's manual. HBV DNA was then quantified by qPCR with HBV specific primers and probes as specified in Table 1 using the FastStart Universal MasterMix from Roche on an ABI-7900HT. The PCR cycle program consisted of 95° C. for 10 min, followed by 40 cycles at 95° C. for 15 sec and 60° C. for 1 min.
A DNA standard was prepared by dilution of the pAAV2 HBV1.3 plasmid with concentrations ranging from 10 to 1×10^7 copies/uL and used to generate a standard curve by plotting Ct value vs. the concentration of the HBV plasmid DNA standard. The quantity of HBV DNA in each sample was determined by interpolating from the standard curve.
Cell viability was calculated as follows: % Cell viability=(luminescence value of test sample−average luminescence value of blank)/(average luminescence value of 0.5% DMSO control−average luminescence of blank)×100%. HBV DNA inhibition was calculated as follows: 100−(HBV DNA copy number of test sample−HBV DNA copy number of ETV)/HBV DNA copy number of 0.5% DMSO control−HBV DNA copy number of ETV)×100%. The CC50, EC50 and EC90 values were determined by dose-response curves fitted by GraphPad Prism using “log (agonist) vs. response—Variable slope”.
A general note: Quantitative PCR measures a nucleic acid by following its amplification.

Molecules are shown by their SMILES.

What is called EC50 is the concentration needed to bring the measured effect to its halfway point. Take `Cc1c(C(=O)C(=O)NC(C)(C)c2nccs2)c(C)n(C)c1C(=O)Nc1ccc(F)c(C#N)c1` [Compound 85, N-(3-cyano-4-fluoro-phenyl)-1,3,5-trimethyl-4-[2-[(1-methyl-1-thiazol-2-yl-ethyl)amino]-2-oxo-acetyl]pyrrole-2-carboxamide]: the EC50 is 1 to 10 nM.

With `C#C[C@](CO)(NC(=O)C(=O)c1c(C)c(C(=O)Nc2ccc(F)c(C(F)(F)F)c2)n(C)c1C)C1CC1` [Compound 65a, N-[4-fluoro-3-(trifluoromethyl)phenyl]-1,3,5-trimethyl-4-[2-oxo-2-[[(1R)-1-cyclopropyl-1-(hydroxymethyl)prop-2-ynyl]amino]acetyl]pyrrole-2-carboxamide], the EC50 is less than 1 nM.

In the case of `C=C[C@@](C)(CO)NC(=O)C(=O)c1c(C)c(C(=O)Nc2ccc(F)c(C(F)(F)F)c2)n(C)c1C` [Compound 69b, N-[4-fluoro-3-(trifluoromethyl)phenyl]-1,3,5-trimethyl-4-[2-oxo-2-[[(1S)-1-(hydroxymethyl)-1-methyl-allyl]amino]acetyl]pyrrole-2-carboxamide], the EC50 lay within 1 to 10 nM.

Consider `C#C[C@@](C)(CO)NC(=O)C(=O)c1c(C)c(C(=O)Nc2ccc(F)c(C#N)c2)n(C)c1C` [Compound 64b, N-(3-cyano-4-fluoro-phenyl)-1,3,5-trimethyl-4-[2-oxo-2-[[(1S)-1-(hydroxymethyl)-1-methyl-prop-2-ynyl]amino]acetyl]pyrrole-2-carboxamide], for which the EC50 was 1 to 10 nM.

Turning to `C=C[C@@H](NC(=O)C(=O)c1c(C)c(C(=O)Nc2ccc(F)c(C#N)c2)n(C)c1C)C(F)(F)F` [Compound 36b, N-(3-cyano-4-fluoro-phenyl)-1,3,5-trimethyl-4-[2-oxo-2-[[(1R)-1-(trifluoromethyl)allyl]amino]acetyl]pyrrole-2-carboxamide], the EC50 is less than 1 nM.

`C=C[C@@](CO)(NC(=O)C(=O)c1c(C)c(C(=O)Nc2ccc(F)c(C(F)(F)F)c2)n(C)c1C)C(F)(F)F` [Compound 80b, N-[4-fluoro-3-(trifluoromethyl)phenyl]-1,3,5-trimethyl-4-[2-oxo-2-[[(1S)-1-(hydroxymethyl)-1-(trifluoromethyl)allyl]amino]acetyl]pyrrole-2-carboxamide]: the EC50 lay within 1 to 10 nM.

As to `Cc1c(C(=O)C(=O)NC2(c3c[nH]nn3)CC(F)(F)C2)c(C)n(C)c1C(=O)Nc1ccc(F)c(C#N)c1` [Compound 19, N-(3-cyano-4-fluoro-phenyl)-4-[2-[[3,3-difluoro-1-(1H-triazol-4-yl)cyclobutyl]amino]-2 oxo-acetyl]-1,3,5-trimethyl-pyrrole-2-carboxamide], the EC50 was less than 1 nM.

`Cc1c(C(=O)C(=O)NC(C)(C)c2ccncc2)c(C)n(C)c1C(=O)Nc1ccc(F)c(C#N)c1` [Compound 93, N-(3-cyano-4-fluoro-phenyl)-1,3,5-trimethyl-4-[2-[[1-methyl-1-(4-pyridyl)ethyl]amino]-2-oxo-acetyl]pyrrole-2-carboxamide]: the EC50 was 1 to 10 nM.

Take `Cc1c(C(=O)C(=O)NC(C)(C)c2cnn(C3CC3)c2)c(C)n(C)c1C(=O)Nc1ccc(F)c(C(F)(F)F)c1` [Compound 136, 4-[2-[[1-(1-cyclopropylpyrazol-4-yl)-1-methyl-ethyl]amino]-2-oxo-acetyl]-N-[4-fluoro-3-(trifluoromethyl)phenyl]-1,3,5-trimethyl-pyrrole-2-carboxamide]: the EC50 was 1 to 10 nM.

`C#CC1(NC(=O)C(=O)c2c(C)c(C(=O)Nc3ccc(Cl)c(Br)c3)n(C)c2C)CC(F)(F)C1` [Compound 133, N-(3-bromo-4-chloro-phenyl)-4-[2-[(1-ethynyl-3,3-difluoro-cyclobutyl)amino]-2-oxo-acetyl]-1,3,5-trimethyl-pyrrole-2-carboxamide]: the EC50 lay in the range of 1 to 10 nM.

As for `Cc1c(C(=O)C(=O)NC2(c3ccncc3)CC(F)(F)C2)c(C)n(C)c1C(=O)Nc1ccc(F)c(C(F)(F)F)c1` [Compound 150, 4-[2-[[3,3-difluoro-1-(4-pyridyl)cyclobutyl]amino]-2-oxo-acetyl]-N-[4-fluoro-3-(trifluoromethyl)phenyl]-1,3,5-trimethyl-pyrrole-2-carboxamide], the EC50 is less than 1 nM.

`Cc1c(C(=O)C(=O)NC2(c3cn[nH]c3)COC2)c(C)n(C)c1C(=O)Nc1ccc(F)c(C(F)(F)F)c1` [Compound 158, N-[4-fluoro-3-(trifluoromethyl)phenyl]-1,3,5-trimethyl-4-[2-oxo-2-[[3-(1H-pyrazol-4-yl)oxetan-3-yl]amino]acetyl]pyrrole-2-carboxamide]: the EC50 is less than 1 nM.

With `Cc1c(C(=O)C(=O)NC(C)(C)c2ccc[nH]c2=O)c(C)n(C)c1C(=O)Nc1ccc(F)c(C(F)(F)F)c1` [Compound 159, N-[4-fluoro-3-(trifluoromethyl)phenyl]-1,3,5-trimethyl-4-[2-[[1-methyl-1-(2-oxo-1H-pyridin-3-yl)ethyl]amino]-2-oxo-acetyl]pyrrole-2-carboxamide], the EC50 fell in the range of 1 to 10 nM.

For `C#CCNC(=O)C(=O)c1cn(C)c(C(=O)Nc2ccc(F)c(C#N)c2)c1F` [Compound 6, N-(3-cyano-4-fluoro-phenyl)-3-fluoro-1-methyl-4-[2-oxo-2-(prop-2-ynylamino)acetyl]pyrrole-2-carboxamide], the EC50 lay in the range of 100 to 1000 nM.

`Cc1c(C(=O)C(=O)NC(C)(C)c2cn[nH]c2)c(C)n(C)c1C(=O)Nc1ccc(F)c(C#N)c1` [Compound 96, N-(3-cyano-4-fluoro-phenyl)-1,3,5-trimethyl-4-[2-[[1-methyl-1-(1H-pyrazol-4-yl)ethyl]amino]-2-oxo-acetyl]pyrrole-2-carboxamide]: the EC50 lay in the range of 1 to 10 nM.

`C#CCNC(=O)C(=O)c1cc(C(=O)Nc2ccc(F)c(C#N)c2)n(C)c1Cl` [Compound 25, 5-chloro-N-(3-cyano-4-fluoro-phenyl)-1-methyl-4-[2-oxo-2-(prop-2-ynylamino)acetyl]pyrrole-2-carboxamide]: the EC50 was 100 to 1000 nM.

`Cc1c(C(=O)C(=O)NC(C)(C)c2nnco2)c(C)n(C)c1C(=O)Nc1ccc(F)c(C(F)(F)F)c1` [Compound 143, N-[4-fluoro-3-(trifluoromethyl)phenyl]-1,3,5-trimethyl-4-[2-[[1-methyl-1-(1,3,4-oxadiazol-2-yl)ethyl]amino]-2-oxo-acetyl]pyrrole-2-carboxamide]: the EC50 lay within 1 to 10 nM.

As for `C#C[C@@H](CO)NC(=O)C(=O)c1c(C)c(C(=O)Nc2ccc(F)c(C#N)c2)n(C)c1C` (single isomer, unassigned) [Compound 31a], the EC50 lay within 1 to 10 nM.

For `C#C[C@H](C)NC(=O)C(=O)c1c(C)c(C(=O)Nc2ccc(F)c(C#N)c2)n(C)c1C` [Compound 17b, N-(3-cyano-4-fluoro-phenyl)-1,3,5-trimethyl-4-[2-oxo-2-[[(1S)-1-methylprop-2-ynyl]amino]acetyl]pyrrole-2-carboxamide], the EC50 was in the range of 1 to 10 nM.

Regarding `Cc1c(C(=O)C(=O)NC(C)(C)c2cn(C)cn2)c(C)n(C)c1C(=O)Nc1ccc(F)c(C(F)(F)F)c1` [Compound 149, N-[4-fluoro-3-(trifluoromethyl)phenyl]-1,3,5-trimethyl-4-[2-[[1-methyl-1-(1-methylimidazol-4-yl)ethyl]amino]-2-oxo-acetyl]pyrrole-2-carboxamide], the EC50 was in the range of 100 to 1000 nM.

In the case of `C=C[C@H](NC(=O)C(=O)c1c(C)c(C(=O)Nc2ccc(F)c(C#N)c2)n(C)c1C)C(F)(F)F` [Compound 36a, N-(3-cyano-4-fluoro-phenyl)-1,3,5-trimethyl-4-[2-oxo-2-[[(1S)-1-(trifluoromethyl)allyl]amino]acetyl]pyrrole-2-carboxamide], the EC50 was less than 1 nM.

Consider `C=C[C@](CO)(NC(=O)C(=O)c1c(C)c(C(=O)Nc2ccc(F)c(C(F)(F)F)c2)n(C)c1C)C(F)(F)F` [Compound 80a, N-[4-fluoro-3-(trifluoromethyl)phenyl]-1,3,5-trimethyl-4-[2-oxo-2-[[(1R)-1-(hydroxymethyl)-1-(trifluoromethyl)allyl]amino]acetyl]pyrrole-2-carboxamide], for which the EC50 fell in the range of 1 to 10 nM.

As for `C#CC(C)(CC)NC(=O)C(=O)c1c(C)c(C(=O)Nc2ccc(F)c(F)c2)n(C)c1C` (stereo not drawn) [Compound 88, N-(3,4-difluorophenyl)-4-[2-[(1-ethyl-1-methyl-prop-2-ynyl)amino]-2-oxo-acetyl]-1,3,5-trimethyl-pyrrole-2-carboxamide], the EC50 was 1 to 10 nM.

Turning to `C#CC1(NC(=O)C(=O)c2c(C)c(C(=O)Nc3ccc(F)c(C(F)(F)F)c3)n(C)c2C)COC1` [Compound 34, 4-[2-[(3-ethynyloxetan-3-yl)amino]-2-oxo-acetyl]-N-[4-fluoro-3-(trifluoromethyl)phenyl]-1,3,5-trimethyl-pyrrole-2-carboxamide], the EC50 is less than 1 nM.
